Experimental findings from patent US7880006B2, “Quinoline derivatives and insecticide comprising thereof as active ingredient” (Meiji Seika Kaisha, Ltd., priority 2004, dated 2011) are described below.

The test system of one data set is Plutella xylostella. As to the kind of experiment: Pesticidal effect against Plutella xylostella (cabbage leaf disk spray). The data set is classed as in vivo. The settings on record: Concentration 200 ppm; method of Test Example 1. The source says: Pesticidal Effect Against Plutella xylostella
A cabbage leaf disk having a diameter of 5 cm was placed in a plastic cup. Test compounds, which had been diluted to designated concentrations by the addition of a 50% aqueous acetone solution (Tween 20, 0.05%), were spread over the cabbage leaf disk by means of a spray gun, and the cabbage leaf disk was then air dried. Five larvae at the second instar of Plutella xylostella were released in the cup. The cup was then lidded, and the larvae were reared in a chamber at a constant temperature (25° C.).

Another data set relates to Spodoptera litura. As to the kind of experiment: Pesticidal effect against Spodoptera litura (cabbage leaf disk spray). The data set is classed as in vivo. As to conditions: Concentration 200 ppm; method of Test Example 2. The text has this: Pesticidal Effect Against Spodoptera litura
A cabbage leaf disk having a diameter of 5 cm was placed in a plastic cup. Test compounds, which had been diluted to designated concentrations by the addition of a 50% aqueous acetone solution (Tween 20, 0.05%), were spread over the cabbage leaf disk by means of a spray gun, and the cabbage leaf disk was then air dried. Five larvae at the third instar of Spodoptera litura were released in the cup. The cup was then lidded, and the larvae were reared in a chamber at a constant temperature (25° C.).

Another data set has as its system Myzus persicae. In words: Pesticidal effect against Myzus persicae (cabbage leaf disk spray). The data set is classed as in vivo. The settings on record: Concentration 500 ppm; method of Test Example 3. The source says: Pesticidal Effect Against Myzus persicae
A cabbage leaf disk having a diameter of 2.8 cm was placed in a plastic schale. Test compounds, which had been diluted to designated concentrations by the addition of a 50% aqueous acetone solution (Tween 20, 0.05%), were spread over the cabbage leaf disk by means of a spray gun, and the cabbage leaf disk was then air dried. Thereafter, ten larvae at the first instar of Myzus persicae were released in the schale. The schale was then lidded, and the larvae were reared in a chamber at a constant temperature (25° C.).

For the next data set, the system named is Tetranychus cinnabarinus. As to the kind of experiment: Miticidal effect against Tetranychus cinnabarinus (kidney leaf disk, eggs/larvae/nymphs). It counts as in vivo. The settings on record: Concentration 500 ppm; method of Test Example 4. How it is done:
Miticidal Effect Against Tetranychus cinnabarinus
A kidney leaf disk having a diameter of 2 cm was placed on agar. Seven female adult mites of Tetranychus cinnabarinus were released on the kidney leaf disk. The female adult mites were allowed to oviposit in a chamber kept at a constant temperature (25° C.) for 24 hr. The female adult mites were then removed from the kidney leaf disk. Test compounds, which had been diluted to designated concentrations by the addition of a 50% aqueous acetone solution (Tween 20, 0.05%), were spread over the leaf disk by means of a spray gun, and the leaf disk was then air dried. Thereafter, the leaf disk was stored in a constant-temperature chamber of 25° C. […] The sum of the unhatching rate of eggs and the death rate of larva ticks/nymphs was determined as the total death rate.

The next data set has as its system Laodel phax striatellus. As to the kind of experiment: Control effect against Laodel phax striatellus (rice seedling spray). As to conditions: Concentration 500 ppm; method of Test Example 5. It counts as in vivo. The source says:
Control Effect Against Laodel phax striatellus
Test compounds, which had been diluted to designated concentrations by the addition of a 50% aqueous acetone solution (Tween 20, 0.05%), were spread over four rice seedlings (7 days after sowing) sowed in a plastic pot by means of a spray gun, followed by air drying. Thereafter, this pot was covered by a plastic cylinder, and ten larvae at the second instar of Laodel phax striatellus were released in the pot. The pot was then lidded, and the larvae were reared in a chamber at a constant temperature (25° C.).

Turning to `CC(=O)Oc1c(C)c(C)nc2ccc(Oc3ccccc3)cc12` [WO 98055460 Compund No. 136], the “Death rate, % Plutella xylostella” value in the data set with Plutella xylostella came out at 0%. For the same compound, in the data set on Spodoptera litura, the “Death rate, % Spodoptera litura” value worked out at 0%. Moreover, in the data set on Myzus persicae, the “Death rate, % Myzus persicae” value was 0%. Moreover, the “Death rate, % Tetranychus cinnabarinus” value with Tetranychus cinnabarinus is given as 0%. In addition, the “Death rate, % Laodelphax striatellus” value in the data set on Laodel phax striatellus worked out at 0%.

The term melting point denotes the temperature, or range, at which the solid turns liquid. With `CC(=O)Oc1c(C)c(C)nc2cc(Cl)c(Oc3ccc(Cl)cc3)cc12` [Compound No. 22, 4-acetoxy-7-chloro-6-(4-chlorophenoxy)-2,3-dimethyl-quinoline], the melting point was in the range of 160 to 162 °C.

In the case of `CC(=O)Oc1c(C)c(C)nc2ccc(Oc3ccc(Cl)cc3)c(Cl)c12` [Compound No. 2, 4-Acetoxy-5-chloro-6-(4-chlorophenoxy)-2,3-dimethyl-quinoline], the melting point was in the range of 167 to 169 °C.

With `COc1ccc2nc(C)c(C)c(OC(C)=O)c2c1` [JP 2633377 Compund No. 46], in the data set with Plutella xylostella, the “Death rate, % Plutella xylostella” value is 0%. The “Death rate, % Spodoptera litura” value with Spodoptera litura is 10%. Moreover, in the data set on Myzus persicae, the “Death rate, % Myzus persicae” value was 0%. Also, in the data set on Tetranychus cinnabarinus, the “Death rate, % Tetranychus cinnabarinus” value is 0%. The “Death rate, % Laodelphax striatellus” value in the data set on Laodel phax striatellus was 0%.
